Reference: ChEMBL document CHEMBL1201862, “PubChem BioAssay data set” (2004)
Calls of active or inactive are those of the source.

Key:
[1] = molecular target: T1, Polyadenylate-binding protein 1 (Homo sapiens, UniProt P11940); assay: MLLE binding blockers, Cy5 peptide tracer – biochemical, fluorescence polarization, Cy5-PAM2 peptide, secondary, miRNA deadenylation inhibitor project, dose response (AID 602260); type: functional; settings: read-out: IC50_Mean
[2] = molecular target: T2, Runt-related transcription factor 1/Core-binding factor subunit beta (Homo sapiens, UniProt Q01196+Q13951); assay: Confirmation of compounds inhibiting the binding between the RUNX1 Runt domain and CBFb-SMMHC via a time resolved fluorescence resonance energy transfer (TR-FRET) assay. [Related pubchem assays (depositor defined):AID1434, AID1438, AID1496, AID1560, AID1645]; type: protein assay
T2 sequence (Q01196 whole entry, the tested form may be a part): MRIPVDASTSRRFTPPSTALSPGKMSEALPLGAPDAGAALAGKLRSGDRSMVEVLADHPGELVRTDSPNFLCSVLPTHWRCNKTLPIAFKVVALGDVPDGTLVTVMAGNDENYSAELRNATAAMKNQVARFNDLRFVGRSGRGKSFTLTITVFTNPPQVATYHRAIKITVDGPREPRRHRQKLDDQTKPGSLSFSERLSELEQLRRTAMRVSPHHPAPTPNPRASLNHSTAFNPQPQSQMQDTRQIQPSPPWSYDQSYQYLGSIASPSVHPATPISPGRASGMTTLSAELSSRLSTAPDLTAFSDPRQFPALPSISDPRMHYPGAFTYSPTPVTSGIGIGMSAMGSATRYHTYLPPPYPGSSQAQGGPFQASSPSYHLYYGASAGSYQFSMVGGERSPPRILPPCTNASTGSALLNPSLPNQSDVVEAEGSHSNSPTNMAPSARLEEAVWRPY
T2 sequence (Q13951 whole entry, the tested form may be a part): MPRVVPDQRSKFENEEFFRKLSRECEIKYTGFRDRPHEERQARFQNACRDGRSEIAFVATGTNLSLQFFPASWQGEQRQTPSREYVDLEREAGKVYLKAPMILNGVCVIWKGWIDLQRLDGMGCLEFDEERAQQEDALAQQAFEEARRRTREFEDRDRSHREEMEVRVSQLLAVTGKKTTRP

[3] = molecular target: Glucose-6-phosphate 1-dehydrogenase (Homo sapiens, UniProt P11413); assay: inhibition of Homo sapiens G6PD, dose series – biochemical, fluorescence, selectivity assay for P. falciparum G6PD inhibitor project, dose response (AID 504792); type: functional
Sequence of Glucose-6-phosphate 1-dehydrogenase (P11413 whole entry, the tested form may be a part): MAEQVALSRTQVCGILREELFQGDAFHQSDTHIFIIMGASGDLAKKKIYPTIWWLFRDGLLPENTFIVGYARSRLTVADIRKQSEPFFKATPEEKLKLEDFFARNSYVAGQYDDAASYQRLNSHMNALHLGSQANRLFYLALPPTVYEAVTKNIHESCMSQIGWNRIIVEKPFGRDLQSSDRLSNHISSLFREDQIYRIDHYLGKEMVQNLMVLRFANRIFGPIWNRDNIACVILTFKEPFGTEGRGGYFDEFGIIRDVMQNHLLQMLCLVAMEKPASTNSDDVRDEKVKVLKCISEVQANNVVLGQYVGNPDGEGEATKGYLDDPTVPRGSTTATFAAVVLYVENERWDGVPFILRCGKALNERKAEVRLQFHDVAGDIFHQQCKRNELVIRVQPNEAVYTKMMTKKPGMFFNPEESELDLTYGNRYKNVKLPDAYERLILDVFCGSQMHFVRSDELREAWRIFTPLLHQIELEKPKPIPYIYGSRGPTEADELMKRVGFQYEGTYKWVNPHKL

[4] = molecular target: T2, Runt-related transcription factor 1/Core-binding factor subunit beta; assay: disruptors of Runt domain/CBFb-SMMHC interaction – biochemical, FRET, Cerulean-Runt, Venus-CBFb-SMMHC, uHTS, […] (AID 1434); type: protein assay
[5] = molecular target: T3, Mannose-6-phosphate isomerase (Homo sapiens, UniProt P34949); assay: MPI inhibition at elevated mannose 6-phosphate – biochemical, fluorescence intensity, high mannose 6-phosphate, primary screen (AID 1220)
T3 sequence (P34949 whole entry): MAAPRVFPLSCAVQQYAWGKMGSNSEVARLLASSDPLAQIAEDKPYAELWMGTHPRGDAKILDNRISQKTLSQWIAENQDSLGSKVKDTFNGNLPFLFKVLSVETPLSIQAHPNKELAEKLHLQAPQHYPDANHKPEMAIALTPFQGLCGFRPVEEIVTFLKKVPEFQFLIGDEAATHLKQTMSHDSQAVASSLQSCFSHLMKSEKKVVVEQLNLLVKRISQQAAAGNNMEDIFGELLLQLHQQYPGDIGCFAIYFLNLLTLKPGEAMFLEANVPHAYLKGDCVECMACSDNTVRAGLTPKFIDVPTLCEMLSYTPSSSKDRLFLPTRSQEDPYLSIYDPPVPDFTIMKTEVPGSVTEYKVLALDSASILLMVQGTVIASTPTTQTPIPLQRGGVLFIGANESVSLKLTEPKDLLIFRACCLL

[6] = molecular target: Eukaryotic translation initiation factor 4E (Mus musculus, UniProt P63073); assay: blockers of eIF4G binding by eIF4E – biochemical, TR-FRET, dose response (AID 855); type: functional;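 note: potency for disrupting eIF4E binding to eIF4GI seen as loss of FRET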
Sequence of Eukaryotic translation initiation factor 4E (P63073 whole entry): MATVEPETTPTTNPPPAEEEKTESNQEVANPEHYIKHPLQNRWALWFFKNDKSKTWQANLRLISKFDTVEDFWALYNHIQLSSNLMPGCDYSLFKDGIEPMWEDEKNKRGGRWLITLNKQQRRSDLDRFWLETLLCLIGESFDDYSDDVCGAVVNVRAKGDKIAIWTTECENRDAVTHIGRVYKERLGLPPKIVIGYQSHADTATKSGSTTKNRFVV

[7] = viability loss in THP-1 monocytes – THP-1 cells, cytotoxicity control for Vif-APOBEC3G degradation inhibitor project, dose response (AID 1117359); type: functional; settings: THP-1
[8] = molecular target: T2, Runt-related transcription factor 1/Core-binding factor subunit beta; assay: Confirmation of compounds inhibiting the binding between the RUNX1 Runt domain and CBFb-SMMHC via a fluorescence resonance energy transfer (FRET) assay. [Related pubchem assays (depositor defined):AID1434, AID1438, AID1496, AID1550, AID1645]; type: protein assay
[9] = molecular target: Aspartyl aminopeptidase (Plasmodium falciparum 3D7, UniProt Q8I2J3)
Sequence of Aspartyl aminopeptidase (Q8I2J3 whole entry): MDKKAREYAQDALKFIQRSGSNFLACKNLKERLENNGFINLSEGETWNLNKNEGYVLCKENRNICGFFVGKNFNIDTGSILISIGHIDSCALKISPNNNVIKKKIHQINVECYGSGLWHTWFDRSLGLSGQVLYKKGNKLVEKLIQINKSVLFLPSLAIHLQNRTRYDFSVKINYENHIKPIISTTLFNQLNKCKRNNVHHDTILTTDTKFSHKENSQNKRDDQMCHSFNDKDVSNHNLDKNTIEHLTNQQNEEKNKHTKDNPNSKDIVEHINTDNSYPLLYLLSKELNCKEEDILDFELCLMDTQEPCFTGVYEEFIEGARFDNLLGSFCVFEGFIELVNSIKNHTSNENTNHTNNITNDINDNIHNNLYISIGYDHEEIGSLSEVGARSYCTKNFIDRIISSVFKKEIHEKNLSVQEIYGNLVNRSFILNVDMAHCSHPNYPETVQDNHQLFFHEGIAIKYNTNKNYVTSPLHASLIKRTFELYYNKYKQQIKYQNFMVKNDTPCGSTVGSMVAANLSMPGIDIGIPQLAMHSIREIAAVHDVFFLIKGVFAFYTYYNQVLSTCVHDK

[10] = molecular target: Procathepsin L (Homo sapiens, UniProt P07711)
Sequence of Procathepsin L (P07711 whole entry): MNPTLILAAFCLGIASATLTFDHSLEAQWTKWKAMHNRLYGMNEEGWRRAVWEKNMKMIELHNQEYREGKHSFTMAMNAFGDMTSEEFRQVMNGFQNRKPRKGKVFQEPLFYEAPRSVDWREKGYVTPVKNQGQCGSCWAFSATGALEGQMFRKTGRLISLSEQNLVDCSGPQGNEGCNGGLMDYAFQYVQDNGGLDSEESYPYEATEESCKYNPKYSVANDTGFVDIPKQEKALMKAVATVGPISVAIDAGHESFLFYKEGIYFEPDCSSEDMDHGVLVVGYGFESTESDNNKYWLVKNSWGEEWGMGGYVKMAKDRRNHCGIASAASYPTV

[11] = molecular target: Induced myeloid leukemia cell differentiation protein Mcl-1 (Homo sapiens, UniProt Q07820); type: functional
[12] = molecular target: T1, Polyadenylate-binding protein 1; assay: MLLE domain peptide-binding blockers, IC50 – biochemical, fluorescence polarization, FITC-PAM2 peptide, dose response (AID 602259); type: functional; settings: read-out: IC50_Mean
[13] = molecular target: T4, Cannabinoid receptor 1 (Homo sapiens, UniProt P21554); assay: SAR analysis of agonists of the Cannabinoid Receptor 1 using an Image-Based Assay - Set 4. [Related pubchem assays (depositor defined):AID2013, AID2026]; type: functional
T4 sequence (P21554 whole entry): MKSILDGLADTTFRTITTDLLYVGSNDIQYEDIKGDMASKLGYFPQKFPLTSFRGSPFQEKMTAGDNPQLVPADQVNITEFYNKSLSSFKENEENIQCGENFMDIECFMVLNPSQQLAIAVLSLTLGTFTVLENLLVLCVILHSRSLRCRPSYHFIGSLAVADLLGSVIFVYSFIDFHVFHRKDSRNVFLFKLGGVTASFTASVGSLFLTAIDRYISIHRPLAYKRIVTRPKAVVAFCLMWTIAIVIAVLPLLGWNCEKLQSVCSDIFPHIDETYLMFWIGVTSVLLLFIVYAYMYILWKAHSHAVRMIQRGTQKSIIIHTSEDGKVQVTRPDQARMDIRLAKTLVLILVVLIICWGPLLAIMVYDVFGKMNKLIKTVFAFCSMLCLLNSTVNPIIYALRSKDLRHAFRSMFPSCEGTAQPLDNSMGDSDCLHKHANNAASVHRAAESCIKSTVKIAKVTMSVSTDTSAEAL

[14] = molecular target: T4, Cannabinoid receptor 1; assay: SAR analysis of antagonists of the Cannabinoid Receptor 1 using an Image-Based Assay - Set 4. [Related pubchem assays (depositor defined):AID2013, AID2026]; type: functional
[15] = molecular target: T5, G-protein coupled receptor 35 (Homo sapiens, UniProt Q9HC97); assay: SAR analysis of Agonists of the GPR35 Receptor using an Image-Based Assay - Set 4. [Related pubchem assays (depositor defined):AID2013, AID2026]; type: functional
T5 sequence (Q9HC97 whole entry): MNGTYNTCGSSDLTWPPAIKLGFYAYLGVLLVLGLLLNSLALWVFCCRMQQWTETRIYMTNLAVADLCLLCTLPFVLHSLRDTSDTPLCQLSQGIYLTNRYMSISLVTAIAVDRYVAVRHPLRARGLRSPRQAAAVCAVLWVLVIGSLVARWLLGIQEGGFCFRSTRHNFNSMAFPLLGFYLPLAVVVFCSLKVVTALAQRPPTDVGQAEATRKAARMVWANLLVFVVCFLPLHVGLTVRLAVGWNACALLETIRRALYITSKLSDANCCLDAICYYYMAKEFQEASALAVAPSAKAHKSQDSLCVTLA

[16] = molecular target: T6, Cannabinoid receptor 2 (Homo sapiens, UniProt P34972); assay: SAR analysis of agonists of the Cannabinoid Receptor 2 using an Image-Based Assay - Set 3. [Related pubchem assays (depositor defined):AID2013, AID2026]; type: functional
T6 sequence (P34972 whole entry): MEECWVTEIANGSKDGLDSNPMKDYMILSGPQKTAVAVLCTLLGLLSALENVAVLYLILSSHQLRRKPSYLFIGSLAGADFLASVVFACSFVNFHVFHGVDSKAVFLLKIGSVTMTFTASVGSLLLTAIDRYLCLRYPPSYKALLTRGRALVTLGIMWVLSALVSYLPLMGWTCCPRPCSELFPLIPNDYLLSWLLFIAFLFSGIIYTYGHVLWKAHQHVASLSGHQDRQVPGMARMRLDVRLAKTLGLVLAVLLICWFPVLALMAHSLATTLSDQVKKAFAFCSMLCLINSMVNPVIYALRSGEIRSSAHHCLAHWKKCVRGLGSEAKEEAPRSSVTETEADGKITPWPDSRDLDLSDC

[17] = molecular target: T6, Cannabinoid receptor 2; assay: SAR analysis of antagonists of the Cannabinoid Receptor 2 using an Image-Based Assay - Set 3. [Related pubchem assays (depositor defined):AID2013, AID2026]; type: functional
[18] = molecular target: G-protein coupled receptor 55 (Homo sapiens, UniProt Q9Y2T6); assay: SAR Analysis of Selective Antagonists of GPR55 using an Image-Based Assay - Set 4. [Related pubchem assays (depositor defined):AID2013, AID2026]; type: functional;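 note: antagonism of response to 5 µM lysophosphatidylinositol agonist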
Sequence of G-protein coupled receptor 55 (Q9Y2T6 whole entry): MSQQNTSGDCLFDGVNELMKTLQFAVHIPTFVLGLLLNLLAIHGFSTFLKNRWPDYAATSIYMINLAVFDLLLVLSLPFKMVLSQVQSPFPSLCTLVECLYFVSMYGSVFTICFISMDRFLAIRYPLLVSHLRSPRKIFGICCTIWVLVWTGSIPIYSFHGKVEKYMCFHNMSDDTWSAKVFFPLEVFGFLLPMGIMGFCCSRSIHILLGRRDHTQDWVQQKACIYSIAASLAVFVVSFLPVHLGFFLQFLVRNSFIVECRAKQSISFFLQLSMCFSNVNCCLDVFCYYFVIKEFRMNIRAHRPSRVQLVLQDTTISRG

[19] = molecular target: T5, G-protein coupled receptor 35; assay: SAR analysis of Antagonists of the GPR35 Receptor using an Image-Based Assay - Set 6. [Related pubchem assays (depositor defined):AID2013, AID2026]; type: functional
[20] = molecular target: Voltage-dependent T-type calcium channel subunit alpha-1H (Homo sapiens, UniProt O95180); assay: human CACNA1H calcium influx blockade – cell-based, synthetic library set 2, HEK293 HH8, Fluo-4, SAR follow-up (AID 493023); type: functional
[21] = A small molecule screen for inhibitors of the PhoP region in Salmonella typhi (5) using purified and synthesized compounds. [Related pubchem assays (depositor defined):AID1850, AID1864, AID1985, AID2252, AID2384, AID2612, AID2811, AID434995]; type: functional
[22] = alpha-synuclein stem-loop luciferase translation blockers – H4 neuroglioma cells, luminescence, confirmation (AID 1988); type: functional, cell-based
[23] = molecular target: T7, Bcl-2-related protein A1 (Mus musculus, UniProt Q07440); type: functional;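 note: confirmatory dose–response counterscreen on Bfl-1, used to check hits from a UBC13 polyubiquitin inhibitor campaign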
T7 sequence (Q07440 whole entry): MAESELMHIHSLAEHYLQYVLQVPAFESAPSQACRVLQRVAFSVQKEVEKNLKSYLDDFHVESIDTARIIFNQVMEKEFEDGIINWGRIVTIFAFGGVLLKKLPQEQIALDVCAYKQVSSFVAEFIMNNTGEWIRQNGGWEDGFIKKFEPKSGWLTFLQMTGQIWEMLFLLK

[24] = molecular target: T8, Apoptotic protease-activating factor 1 (Homo sapiens, UniProt O14727); type: functional
T8 sequence (O14727 whole entry): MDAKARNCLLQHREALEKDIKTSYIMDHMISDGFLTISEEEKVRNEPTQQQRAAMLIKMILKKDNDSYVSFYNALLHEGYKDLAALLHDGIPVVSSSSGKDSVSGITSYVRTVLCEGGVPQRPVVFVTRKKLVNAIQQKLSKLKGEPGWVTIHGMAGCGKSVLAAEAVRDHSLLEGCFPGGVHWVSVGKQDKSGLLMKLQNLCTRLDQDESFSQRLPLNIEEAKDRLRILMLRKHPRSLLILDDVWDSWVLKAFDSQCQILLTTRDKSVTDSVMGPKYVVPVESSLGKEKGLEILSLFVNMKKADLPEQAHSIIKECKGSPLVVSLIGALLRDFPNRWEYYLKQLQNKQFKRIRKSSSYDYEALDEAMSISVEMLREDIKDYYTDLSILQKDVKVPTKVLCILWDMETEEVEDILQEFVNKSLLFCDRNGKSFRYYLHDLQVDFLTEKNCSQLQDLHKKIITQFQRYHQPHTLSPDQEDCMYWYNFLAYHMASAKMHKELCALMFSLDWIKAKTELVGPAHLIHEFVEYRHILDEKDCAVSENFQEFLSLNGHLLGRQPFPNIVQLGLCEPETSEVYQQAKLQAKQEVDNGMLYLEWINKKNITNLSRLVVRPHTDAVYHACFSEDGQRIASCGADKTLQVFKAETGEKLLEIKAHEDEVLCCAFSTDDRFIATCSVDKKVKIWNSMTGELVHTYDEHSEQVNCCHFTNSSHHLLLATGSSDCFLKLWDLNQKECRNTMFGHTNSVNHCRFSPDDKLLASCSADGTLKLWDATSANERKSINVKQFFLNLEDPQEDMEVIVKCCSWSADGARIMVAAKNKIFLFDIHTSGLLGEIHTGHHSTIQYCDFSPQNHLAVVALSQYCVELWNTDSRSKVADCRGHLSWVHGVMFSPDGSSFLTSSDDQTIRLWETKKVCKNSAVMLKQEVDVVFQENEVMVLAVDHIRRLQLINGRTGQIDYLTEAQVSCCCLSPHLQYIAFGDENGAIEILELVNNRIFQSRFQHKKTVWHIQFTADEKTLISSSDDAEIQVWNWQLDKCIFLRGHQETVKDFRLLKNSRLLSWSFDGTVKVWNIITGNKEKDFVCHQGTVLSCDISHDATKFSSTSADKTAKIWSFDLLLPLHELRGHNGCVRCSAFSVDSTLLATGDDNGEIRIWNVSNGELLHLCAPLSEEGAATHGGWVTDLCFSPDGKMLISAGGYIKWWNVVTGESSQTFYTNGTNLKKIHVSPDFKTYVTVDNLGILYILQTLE

[25] = molecular target: T9, Ubiquitin-conjugating enzyme E2 N (Homo sapiens, UniProt P61088); type: functional
T9 sequence (P61088 whole entry): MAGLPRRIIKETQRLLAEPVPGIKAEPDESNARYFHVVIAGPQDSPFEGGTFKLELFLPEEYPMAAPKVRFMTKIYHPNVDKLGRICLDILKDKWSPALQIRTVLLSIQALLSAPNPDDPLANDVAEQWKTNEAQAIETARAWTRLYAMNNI

[26] = Luminescence Cell-Based Dose Response HTS to Identify Inhibitors of 5'UTR Stem-Loop Driven Prion Protein mRNA Translation in H4 Neuroglioblastoma Cells. [Related pubchem assays: 1827 (Project Summary), 1813 (Primary HTS)]; type: functional
[27] = tested on: Streptococcus sp. 'group A'; assay: Streptococcus pyogenes SK(-)GAS viability under kanamycin – luminescence, BacTiterGlo, confirmation, counter-screen for streptokinase expression inhibitor project, dose response (AID 1900); type: functional, organism-based
[28] = molecular target: T9, Ubiquitin-conjugating enzyme E2 N; type: functional; remark: listed apart in the source
[29] = tested on: Streptococcus; assay: GAS UMAA2166 growth inhibition – luminescence, BacTiterGlo, counter-screen for streptokinase expression inhibitor project, dose response (AID 1915); type: functional, organism-based;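 note: potency for reduction of bacterial viability or growth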
[30] = luciferase reporter signal suppression in cells – H4 neuroglioma cells, luminescence, dose response (AID 1990); type: functional, cell-based
[31] = molecular target: Nonstructural protein 1 (Influenza A virus, UniProt Q194T2); type: functional, Influenza A virus (A/California/07/2009(H1N1))
Sequence of Nonstructural protein 1 (Q194T2 whole entry): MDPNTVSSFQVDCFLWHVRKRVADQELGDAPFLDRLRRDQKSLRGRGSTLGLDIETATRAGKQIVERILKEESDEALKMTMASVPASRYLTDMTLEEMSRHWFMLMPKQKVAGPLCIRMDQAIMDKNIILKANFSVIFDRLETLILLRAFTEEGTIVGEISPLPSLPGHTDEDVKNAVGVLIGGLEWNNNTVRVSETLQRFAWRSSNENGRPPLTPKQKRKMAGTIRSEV

T1 sequence (P11940 whole entry, the tested form may be a part): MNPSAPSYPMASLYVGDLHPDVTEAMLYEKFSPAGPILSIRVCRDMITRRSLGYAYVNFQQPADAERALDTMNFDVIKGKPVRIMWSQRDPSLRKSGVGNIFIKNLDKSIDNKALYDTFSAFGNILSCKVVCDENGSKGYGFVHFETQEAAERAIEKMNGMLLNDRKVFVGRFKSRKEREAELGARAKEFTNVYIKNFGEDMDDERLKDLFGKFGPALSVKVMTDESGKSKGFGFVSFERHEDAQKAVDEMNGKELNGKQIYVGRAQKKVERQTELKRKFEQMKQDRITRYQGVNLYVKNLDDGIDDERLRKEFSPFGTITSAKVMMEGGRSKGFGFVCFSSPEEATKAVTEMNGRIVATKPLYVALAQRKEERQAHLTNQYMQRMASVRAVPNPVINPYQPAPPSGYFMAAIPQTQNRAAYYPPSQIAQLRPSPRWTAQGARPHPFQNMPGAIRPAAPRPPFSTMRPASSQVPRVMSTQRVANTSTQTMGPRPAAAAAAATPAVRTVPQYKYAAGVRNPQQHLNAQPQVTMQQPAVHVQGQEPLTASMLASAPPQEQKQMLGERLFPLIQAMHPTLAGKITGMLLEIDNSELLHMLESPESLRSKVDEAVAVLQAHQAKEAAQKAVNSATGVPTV

CN1CCc2cccc3c2[C@@H]1Cc1ccc(O)c(O)c1-3
IC50 [1]: > 66 µM (inactive)
IC50 [2]: 17.8 µM (active)
IC50 [3]: 38.4 µM (inactive)
IC50 [4]: 7.12 µM (active)
IC50 [5]: 24.9 µM (active)
IC50 [6]: > 64 µM (inactive)
CC50 [7]: 15 µM (active)
IC50 [8]: 8.48 µM (active)
IC50 [9]: 3.1 µM (active)
IC50 [10]: > 59.6 µM (not active)
IC50 [11]: < 0.4 µM (active)
IC50 [12]: > 66 µM (inactive)

Cc1ccc2nc(-c3ccccn3)cc(C(=O)Nc3ccc(S(=O)(=O)N4CCOCC4)cc3)c2c1
EC50 [13]: > 32 µM (inactive)
IC50 [14]: 5.37 µM (active)
EC50 [15]: > 32 µM (inactive)
EC50 [16]: > 32 µM (inactive)
IC50 [17]: > 32 µM (inactive)
IC50 [18]: > 32 µM (inactive)
IC50 [19]: > 32 µM (inactive)

O=C(NC[C@@H]1[C@H]2CN(Cc3ccccc3)C[C@@H]12)c1cc(Cl)cc(Cl)c1
EC50 [20]: 1.5 µM (active)

O=C1C2=C(Nc3ccccc3SC2c2cccnc2)c2ccccc21 (stereo unspecified)
IC50 [21]: > 150 µM (active)

N=C(N)N/N=C/c1ccc(OCc2ccccc2)c(OCc2ccccc2)c1
EC50 [22]: 19.9 µM (active)
IC50 [23]: 16 µM (active)
IC50 [24]: > 100 µM (inactive)
IC50 [25]: 6.15 µM (active)
EC50 [26]: > 120 µM (not active)
EC50 [27]: 5.75 µM (active)
IC50 [28]: 5.05 µM (active)
EC50 [29]: 8.86 µM (active)
EC50 [30]: 8.78 µM (active)
IC50 [31]: 49 µM (active)
